From patent US9796742B2, “Kinase inhibitors” (Respivert Limited, priority 2012, dated 2017)
Like-named read-outs stand apart in the source and are kept apart here.

Tests used:
p38 MAPKα = p38 MAPKα (Homo sapiens (Human), UniProt Q16539); test: p38 MAPKα enzyme inhibition (FRET, Z-LYTE; Method 2); type: biochemical
Method: (§1) The enzyme inhibitory activities of compounds disclosed herein are determined by FRET using synthetic peptides labelled with both donor and acceptor fluorophores (Z-LYTE, Invitrogen Ltd., Paisley, UK).
The inhibitory activities of test compounds against the p38 MAPKα isoform (MAPK14: Invitrogen), are evaluated indirectly by determining the level of activation/phosphorylation of the down-stream molecule, MAPKAP-K2. The p38 MAPKα protein (80 ng/mL, 2.5 μL) is mixed with the test compound (2.5 μL of either 4 μg/mL, 0.4 μg/mL, 0.04 μg/mL or 0.004 μg/mL) for 2 hr at RT. […] The mixture is incubated for 1 hr at RT. Development reagent (protease, 5 μL) is added for 1 hr prior to detection in a fluorescence microplate reader (Varioskan® Flash, ThermoFisher Scientific).
Method 2 This method follows the same steps as Method 1 above, but utilises a higher concentration of the p38 MAPKα protein (2.5 μL of 200 ng/mL protein instead of 2.5 μL of 80 ng/mL protein) for mixing with the test compound.
(§2) In all cases, the site-specific protease cleaves non-phosphorylated peptide only and eliminates the FRET signal. Phosphorylation levels of each reaction are calculated using the ratio of coumarin emission (donor) over fluorescein emission (acceptor), for which high ratios indicate high phosphorylation and low ratios indicate low phosphorylation levels. The percentage inhibition of each reaction is calculated relative to non-inhibited control and the 50% inhibitory concentration (IC50 value) is then calculated from the concentration-response curve.

c-Src = c-Src (Homo sapiens (Human), UniProt P12931); test: c-Src enzyme inhibition (FRET, Z-LYTE); type: biochemical
c-Src, sequence (P12931 whole entry, looked up): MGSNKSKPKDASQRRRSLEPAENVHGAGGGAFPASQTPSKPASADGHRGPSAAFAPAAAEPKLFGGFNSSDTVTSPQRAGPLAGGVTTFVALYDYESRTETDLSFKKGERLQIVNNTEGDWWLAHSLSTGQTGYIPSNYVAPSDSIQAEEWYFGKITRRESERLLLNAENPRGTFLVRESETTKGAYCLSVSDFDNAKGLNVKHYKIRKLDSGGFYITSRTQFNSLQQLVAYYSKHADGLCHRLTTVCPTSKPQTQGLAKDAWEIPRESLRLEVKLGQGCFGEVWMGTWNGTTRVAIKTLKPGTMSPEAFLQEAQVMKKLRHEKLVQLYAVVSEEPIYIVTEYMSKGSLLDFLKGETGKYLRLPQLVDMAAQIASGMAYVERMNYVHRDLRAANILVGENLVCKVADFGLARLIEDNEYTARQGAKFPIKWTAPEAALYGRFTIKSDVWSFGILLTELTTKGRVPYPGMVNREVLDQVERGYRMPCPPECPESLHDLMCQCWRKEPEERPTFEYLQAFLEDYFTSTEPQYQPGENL
Method: as §1
(§3) The inhibitory activities of compounds of the invention against c-Src and Syk enzymes (Invitrogen), are evaluated in a similar fashion to that described hereinabove. The relevant enzyme (3000 ng/mL or 2000 ng/mL respectively, 2.5 μL) is incubated with the test compound (either 4 μg/mL, 0.4 μg/mL, 0.04 μg/mL, or 0.004 μg/mL, 2.5 μL each) for 2 hr at RT. The FRET peptides (8 μM. 2.5 μL), and appropriate ATP solutions (2.5 μL, 800 μM for c-Src, and 60 μM ATP for Syk) are then added to the enzymes/compound mixtures and incubated for 1 hr. Development reagent (protease, 5 μL) is added for 1 hr prior to detection in a fluorescence microplate reader (Varioskan® Flash, ThermoFisher Scientific).
as §2

Syk = Syk (Homo sapiens (Human), UniProt P43405); test: Syk enzyme inhibition (FRET, Z-LYTE); type: biochemical
Method: as §1, §3, §2

GSK3α = GSK3α (Homo sapiens (Human), UniProt P49840); test: GSK 3α enzyme inhibition (FRET, Z-LYTE; Method 2); type: biochemical
GSK3α, sequence (P49840 whole entry): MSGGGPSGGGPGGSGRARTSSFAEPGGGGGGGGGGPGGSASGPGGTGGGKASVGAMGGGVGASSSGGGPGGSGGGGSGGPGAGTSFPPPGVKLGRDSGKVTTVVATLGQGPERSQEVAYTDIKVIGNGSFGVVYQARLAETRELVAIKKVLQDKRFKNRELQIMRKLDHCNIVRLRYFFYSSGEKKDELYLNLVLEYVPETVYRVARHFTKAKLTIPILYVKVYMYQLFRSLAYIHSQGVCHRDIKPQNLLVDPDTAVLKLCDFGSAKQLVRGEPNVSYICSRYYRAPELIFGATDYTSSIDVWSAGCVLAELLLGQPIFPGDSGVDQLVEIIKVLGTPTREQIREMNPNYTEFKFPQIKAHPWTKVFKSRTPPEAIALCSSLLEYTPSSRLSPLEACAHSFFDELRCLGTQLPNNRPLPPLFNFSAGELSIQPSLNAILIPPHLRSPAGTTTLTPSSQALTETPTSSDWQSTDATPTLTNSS
Method in brief: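 GSK3-α protein preincubated with compound for 105 min, then Z-LYTE FRET peptide and ATP added for 1 h before protease development for 1 h. Phosphorylation taken from coumarin/fluorescein emission ratio; percent inhibition against uninhibited control and IC50 calculated from concentration-response curves.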

d-U937 cells = test: LPS-induced TNFα/IL-8 release in d-U937 cells; type: cell-based; details: Homo sapiens, dU937, LPS-stimulated d-U937 cells
Method: U937 cells, a human monocytic cell line, are differentiated to macrophage-type cells by incubation with phorbol myristate acetate (PMA; 100 ng/mL) for 48 to 72 hr. Cells are pre-incubated with final concentrations of test compound for 2 hr and are then stimulated with 0.1 μg/mL of LPS (from E. Coli: O111:B4, Sigma) for 4 hr. The supernatant is collected for determination of TNFα and IL-8 concentrations by sandwich ELISA (Duo-set, R&D systems). The inhibition of TNFα production is calculated as a percentage of that achieved by 10 μg/mL of BIRB796 at each concentration of test compound by comparison against vehicle control. The relative 50% effective concentration (REC50) is determined from the resultant concentration-response curve. The inhibition of IL-8 production is calculated at each concentration of test compound by comparison with vehicle control. The 50% inhibitory concentration (IC50) is determined from the resultant concentration-response curve.

PBMCs [1] = test: LPS-induced TNFα/IL-8 release in PBMC cells; type: cell-based; details: Homo sapiens, LPS-stimulated PBMCs
Method in brief: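 Human PBMCs from healthy donors, isolated by density gradient, were pretreated with compound for 2 h and then stimulated with 1 ng/mL LPS (E. coli 0111:B4) for 24 h at 37° C, 5% CO2. Supernatant IL-8 and TNFα were measured by sandwich ELISA, and IC50 was taken from the dose-response curve.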

HT29 cells = test: IL-1β-induced IL-8 release in HT29 cells; type: cell-based; details: Homo sapiens, HT-29, IL-1β-stimulated HT29 cells, read-out: IC50 Values for Inhibition of Cytokine Release, HT29 cells IL-8
Method: HT29 cells, a human colon adenocarcinorna cell line, are plated in a 96 well plate (24 hrs) and pre-treated with compounds at the desired concentration for 2 hours before addition of 5 ng/mL of IL-1β (Abcam) for 24 hours. Supernatants are harvested for IL-8 quantification by Sandwich ELISA (Duo-set, R&D System). The IC50 is determined from the dose response curve.

PBMCs [2] = test: IL-2 and IFN gamma release in CD3/CD28 stimulated PBMC cells; type: cell-based; details: Homo sapiens
Method: PBMCs from healthy subjects are separated from whole blood using a density gradient (Lymphoprep, Axis-Shield Healthcare). Cells are added to a 96 well plate pre-coated with a mixture of CD3/[…] monoclonal antibodies (0.3 μg/mL eBioscience and 3 μg/mL BD Pharmingen respectively). Compound at the desired concentration is then added to the wells and the plate left for 3 days under normal tissue culture conditions. Supernatants are harvested and IL-2 and IFN gamma release determined by Sandwich ELISA (Duo-set, R&D System). The IC50 is determined from the dose response curve.

[3] = IL-8, read-out: IC50 Values for Inhibition of Cytokine Release, dU937 cells IL-8
[4] = TNFα (REC50 relative to BIRB796 per method), read-out: IC50 Values for Inhibition of Cytokine Release, dU937 cells TNFα
[5] = IL-8, read-out: IC50 Values for Inhibition of Cytokine Release, PBMCs IL-8
[6] = TNFα, read-out: IC50 Values for Inhibition of Cytokine Release, PBMCs TNFα
[7] = IL-2, read-out: IC50 Values for Inhibition of Cytokine Release, PBMCs IL-2
[8] = IFNγ, read-out: IC50 Values for Inhibition of Cytokine Release, PBMCs IFNγ

p38 MAPKα, sequence (Q16539 whole entry): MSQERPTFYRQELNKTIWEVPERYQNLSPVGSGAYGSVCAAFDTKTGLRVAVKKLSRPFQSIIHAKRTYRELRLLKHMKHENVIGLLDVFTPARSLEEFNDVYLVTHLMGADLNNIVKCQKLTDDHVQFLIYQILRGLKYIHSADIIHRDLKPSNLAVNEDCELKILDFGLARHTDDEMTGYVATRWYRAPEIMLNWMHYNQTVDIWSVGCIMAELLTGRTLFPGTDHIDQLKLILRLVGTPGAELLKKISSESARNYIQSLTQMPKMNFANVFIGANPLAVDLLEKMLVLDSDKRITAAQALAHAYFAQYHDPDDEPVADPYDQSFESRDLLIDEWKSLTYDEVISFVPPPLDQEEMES

SMILES	IC50 (p38 MAPKα)	IC50 (c-Src)	IC50 (Syk)	IC50 (GSK3α)	IC50 (d-U937 cells; [3])	IC50 (d-U937 cells; [4])	IC50 (HT29 cells)	IC50 (PBMCs [1]; [5])	IC50 (PBMCs [1]; [6])	IC50 (PBMCs [2]; [7])	IC50 (PBMCs [2]; [8])
CC(C)(C)c1cc(NC(=O)Nc2ccc(Oc3ccnc(Nc4ccccc4)n3)c3ccccc23)n(-c2ccc(P(C)(C)=O)cc2)n1 [Example 1, 1-(3-(tert-Butyl)-1-(4-(dimethylphosphoryl)phenyl)-1H-pyrazol-5-yl)-3-(4-((2-(phenylamino)pyrimidin-4-yl)oxy)naphthalen-1-yl)urea]	8 nM	15 nM	34 nM	1280 nM	4.9 nM	2 nM	–	6.9 nM	1.3 nM	–	–
CC(C)c1cc(NC(=O)Nc2ccc(Oc3ccnc(Nc4ccccc4)n3)c3ccccc23)n(-c2ccc(P(C)(C)=O)cc2)n1 [Example 4, 1-(1-(4-(Dimethylphosphoryl)phenyl)-3-isopropyl-1H-pyrazol-5-yl)-3-(4-((2-(phenylamino)-pyrimidin-4-yl)oxy)naphthalen-1-yl)urea]	–	12 nM	–	220 nM	–	19.2 nM	–	58.9 nM	20.8 nM	–	–
CN(c1ccccc1)c1nccc(Oc2ccc(NC(=O)Nc3cc(C(C)(C)C)nn3-c3ccc(P(C)(C)=O)cc3)c3ccccc23)n1 [Example 15, 1-(3-(tert-Butyl)-1-(4-(dimethylphosphoryl)phenyl)-1H-pyrazol-5-yl)-3-(4-((2-(methyl-(phenyl)amino)pyrimidin-4-yl)oxy)naphthalen-1-yl)urea]	56 nM	> 1000 nM	> 1000 nM	> 10000 nM	398 nM	182 nM	632 nM	680 nM	200 nM	–	–
COc1cc(Nc2nccc(Oc3ccc(NC(=O)Nc4cc(C(C)C)nn4-c4cccc(CP(C)(C)=O)c4)c4ccccc34)n2)cc(OCCN2CCOCC2)c1 [Example 39, 1-(1-(3-((Dimethylphosphoryl)methyl)phenyl)-3-isopropyl-1H-pyrazol-5-yl)-3-(4-((2-((3-methoxy-5-(2-morpholinoethoxy)phenyl)amino)pyrimidin-4-yl)oxy)naphthalen-1-yl)urea]	13 nM	3 nM	1 nM	2230 nM	–	0.5 nM	4.6 nM	1.2 nM	–	–	–
CC(C)(C)c1cc(NC(=O)Nc2ccc(Oc3ccnc(Nc4ccccc4)c3)c3ccccc23)n(-c2cccc(CP(C)(C)=O)c2)n1 [Example 41, 1-(3-(tert-Butyl)-1-(3-((dimethylphosphoryl)methyl)phenyl)-1H-pyrazol-5-yl)-3-(4-((2-(phenylamino)pyridin-4-yl)oxy)naphthalen-1-yl)urea]	357 nM	56 nM	96 nM	4300 nM	–	–	4.7 nM	2.8 nM	–	56.4 nM	–

The next lines start with results.

IC50 (p38 MAPKα)	IC50 (c-Src)	IC50 (Syk)	IC50 (GSK3α)	IC50 (d-U937 cells; [3])	IC50 (d-U937 cells; [4])	IC50 (HT29 cells)	SMILES	IC50 (PBMCs [1]; [5])	IC50 (PBMCs [1]; [6])	IC50 (PBMCs [2]; [7])	IC50 (PBMCs [2]; [8])
–	47 nM	63 nM	6980 nM	–	–	5.6 nM	CC(C)c1cc(NC(=O)Nc2ccc(Oc3ccnc(Nc4ccccc4)c3)c3ccccc23)n(-c2cccc(CP(C)(C)=O)c2)n1 [Example 42, 1-(1-(3-((Dimethylphosphoryl)methyl)phenyl)-3-isopropyl-1H-pyrazol-5-yl)-3-(4-((2-(phenylamino)pyridin-4-yl)oxy)naphthalen-1-yl)urea]	5.5 nM	–	–	–
201 nM	–	–	8040 nM	–	–	7.1 nM	CC(C)(C)c1cc(NC(=O)Nc2ccc(Oc3ccnc(Nc4ccccc4)c3)c3ccccc23)n(-c2cccc(CP3(=O)CCCC3)c2)n1 [Example 44, 1-(3-(tert-Butyl)-1-(3-((1-oxidophospholan-1-yl)methyl)phenyl)-1H-pyrazol-5-yl)-3-(4-((2-(phenylamino)pyridin-4-yl)oxy)naphthalen-1-yl)urea]	4 nM	–	–	–
231 nM	87 nM	232 nM	> 10000 nM	–	–	4.3 nM	CC(C)c1cc(NC(=O)Nc2ccc(Oc3ccnc(Nc4cc(OCCN5CCOCC5)cc(OC(F)(F)F)c4)n3)c3ccccc23)n(-c2cccc(CP(C)(C)=O)c2)n1 [Example 48, 1-(1-(3-((Dimethylphosphoryl)methyl)phenyl)-3-isopropyl-1H-pyrazol-5-yl)-3-(4-((2-((3-(2-morpholinoethoxy)-5-(trifluoromethoxy)phenyl)amino)pyrimidin-4-yl)oxy)naphthalen-1-yl)urea]	1.5 nM	–	53.4 nM	–
202 nM	95 nM	219 nM	> 10000 nM	–	–	3.8 nM	CC(C)c1cc(NC(=O)Nc2ccc(Oc3ccnc(Nc4cc(OCCN5CCOCC5)cc(C(F)(F)F)c4)n3)c3ccccc23)n(-c2cccc(CP(C)(C)=O)c2)n1 [Example 49, 1-(1-(3-((Dimethylphosphoryl)methyl)phenyl)-3-isopropyl-1H-pyrazol-5-yl)-3-(4-((2-((3-(2-morpholinoethoxy)-5-(trifluoromethyl)phenyl)amino)pyrimidin-4-yl)oxy)naphthalen-1-yl)urea]	1.4 nM	–	45.6 nM	5.1 nM
303 nM	14 nM	24 nM	4190 nM	–	–	2.6 nM	CC(C)(C)c1cc(NC(=O)Nc2ccc(Oc3ccnc(Nc4cc(OCCN5CCOCC5)cc(C(F)(F)F)c4)n3)c3ccccc23)n(-c2cccc(CP(C)(C)=O)c2)n1 [Example 61, 1-(3-(tert-Butyl)-1-(3-((dimethylphosphoryl)methyl)phenyl)-1H-pyrazol-5-yl)-3-(4-((2-((3-(2-morpholinoethoxy)-5-(trifluoromethyl)phenyl)amino)pyrimidin-4-yl)oxy)naphthalen-1-yl)urea]	2.3 nM	–	50.7 nM	3.3 nM
